In US5877147A, “Compounds for medicinal use” (Peptech (UK) Limited, priority 1993, dated 1999):

Experiments:
IgA = IgA levels in treated patients (mucosal immunity); type: in vivo, human; conditions: in words
[1] = system: lung and peritoneal macrophages; conditions: orally administered, non-liposome encapsulated; cited from earlier work
melanoma metastases = conditions: orally administered, non-liposome encapsulated; cited from earlier work
[2] = system: Human Papilloma Virus (HPV) infection of the uterine cervix
Protocol: (§1) The study group consisted of 50 women between 20 and 30 years of age (mean 26.7) with HPV of the cervix. The duration of the disease varied from 1 to 3.5 years. […] To control for variation in Ig content of cervical secretions during the menstrual cycle, treatment was commenced 8-10 days after the beginning of the period.
(§2) Follow up studies on the clinical progression of the HPV infection were performed

[3] = system: Ig in saliva and genital tract secretions; conditions: 3 days after 1 mg GMDP orally x 10 days
From the text: as §1
(§3) A number of immunological parameters were monitored before the beginning of treatment; immunoglobulin (Ig) in serum (radial immunodiffusion), Ig in saliva and genital tract secretions (ELISA), subpopulations of immune cells (immunocytofluorimetry).
as §2
(§4) Control values for immunological parameters were also taken from a group of women free of HPV infection. Their age range was 20 to 30 years with a mean of 25.6.

[4] = system: immunoglobulin (Ig) in serum; conditions: 3 days after 1 mg GMDP orally x 10 days
From the text: as §1, §3, §2, §4

[5] = system: subpopulations of immune cells; conditions: blood, 3 days after 1 mg GMDP orally x 10 days
From the text: as §1, §3, §2, §4

mice = conditions: cited from earlier work
[6] = that of MDP = 100%; cited from earlier work

N-acetyl-D-glucosaminyl-(β1-4)-N-acetylmuramyl-L-alanyl-D-glutamic acid [GMDP-A]
levels of IgA in treated patients (IgA): especially high

CCCCCCCCCCCCCCCC(=O)OC[C@H](COP(=O)([O-])OCCNC(=O)[C@H](C)NC(=O)CC[C@@H](NC(=O)[C@H](C)NC(=O)[C@@H](C)O[C@H]1[C@H](O)[C@@H](CO)OC(O)[C@@H]1NC(C)=O)C(N)=O)OC(=O)CCCCCCCCCCCCCCC.O.[Na+] (stereo partly drawn) [MTP-PE, N-acetyl-muramyl-L-alanyl-D-isoglutaminyl-L-alanyl-2-(1',2'-dipalmitoyl-sn-glycero-3'-hydroxy-phosphoryloxy)ethylamide, monosodium]
tumouricidal activity in lung and peritoneal macrophages [1]: produced tumouricidal activity | eradicating well established melanoma metastases (melanoma metastases): not effective | inhibiting lung and lymph node metastasis (melanoma metastases): effective

CC(=O)NC1C(OC2C(CO)OC(O)C(NC(C)=O)C2OC(C)C(=O)NC(C)C(=O)NC(CCC(=O)O)C(N)=O)OC(CO)C(O)C1O [GMDP, N-acetyl-D-glucosaminyl-(β1-4)-N-acetylmuramyl-L-alanyl-D-isoglutamine]
Recurrence of HPV, number of patients ([2]; 30 in group, 1 mg GMDP orally daily for 10 days, adjunct therapy, placebo 7 of 20): 3 | Recurrence of HPV, % of group ([2]; 30 in group, 1 mg GMDP orally daily for 10 days, adjunct therapy, placebo 35%): 10% | Full Cure, number of patients ([2]; 30 in group, 1 mg GMDP orally daily for 10 days, adjunct to antibiotics, laser and cryotherapy, placebo 13 of 20): 27 | Full Cure, % of group ([2]; 30 in group, 1 mg GMDP orally daily for 10 days, adjunct to laser and cryotherapy, placebo 65%): 90% | rate of cure versus placebo group ([2]; GMDP as adjunct to laser and cryotherapy, in words): increase in the rate of cure | Mucus of uterine cervix IgD, after treatment ([3]; before 0.326 ± 0.16, spread 0.17): 0.315 mg/dL | Saliva IgM, after treatment ([3]; before 3.17 ± 1.05, spread 1.11): 1.65 mg/dL | Mucus of uterine cervix IgM, after treatment ([3]; before 3.18 ± 2.21, spread 1.65): 1.8 mg/dL | Mucus of uterine cervix IgG, after treatment ([3]; before 9.57 ± 2.19, spread 3.01): 12.01 mg/dL | Saliva IgA, after treatment ([3]; before 11.45 ± 3.48, spread 2.98): 13.16 mg/dL | Saliva IgG, after treatment ([3]; before 16.19 ± 4.01, spread 4.88): 15.05 mg/dL | Saliva sIgA, after treatment ([3]; before 26.53 ± 5.23, spread 4.96): 25.46 mg/dL | Serum IgM, after treatment ([4]; before 123.8 ± 10.4, spread 11.2, p<0.01 vs before): 160.8 mg/dL | Serum IgA, after treatment ([4]; before 216.0 ± 16.8, spread 18.2): 228.7 mg/dL | Serum IgG, after treatment ([4]; before 1424 ± 48, spread 51, p<0.01 vs before): 1258 mg/dL | B-cells %, after treatment ([5]; before 5.30 ± 0.8, spread 1.07): 5.08% | CD16 +ve %, after treatment ([5]; before 16.3 ± 2.1, spread 2.3): 13.1% | CD8 +ve %, after treatment ([5]; before 24.2 ± 2.87, spread 3.17): 20.3% | Lymphocytes %, after treatment ([5]; before 34.11 ± 3.16, spread 2.68): 35.77% | CD4 +ve %, after treatment ([5]; before 34.6 ± 3.1, spread 3.8): 41.8% | CD3 ve %, after treatment ([5]; before 55.8 ± 4.1, spread 3.6): 59.12% | B-cells absolute, after treatment ([5]; before 80.1 ± 12.1, spread 21.7): 103.8 | CD16 +ve absolute, after treatment ([5]; before 246.3 ± 31.7, spread 47.1): 268.1 | CD8 +ve absolute, after treatment ([5]; before 365.7 ± 43.4, spread 64.9): 415.3 | levels of IgA in treated patients (IgA): especially high | LD50 (acute toxicity) (mice): 7 g/kg | pyrogenicity relative to MDP [6]: about 50%
